Assay [1] has as its system CD4+ T cells from T1N donors. Description: In vitro peptide stimulation of CD4+ T cells with peptide-loaded fixed T2DQ6 cells, then DQ6-peptide tetramer staining. Type of assay: cell-based, human. The conditions noted are these: for Frequency of corresponding DQ6-peptide tetramer+/CD4+ T cells after in vitro stimulation with the peptide: T2DQ6 pulsed with 1 μM peptide, co-culture with CD4+ T cells of T1N donors, IL-7/IL-2, with vs without peptide, n = 13 donors (HCRT peptides). The method, then:
Fig. 3 Tetramer^+/CD4^+ T cells in DQ6^+ donors. a Dot-plots of CD4^+ T cells stimulated in vitro with the indicated peptides followed by staining with the indicated tetramers. Frequencies (%) of tetramer^+/CD4^+ T cells are indicated. b Comparison between frequencies of tetramer^+ T cells from the same T1N donor (paired as indicated) with and without peptide stimulation. Significance (P < 0.05, bolded) is determined using the paired samples t-test (n = 13 donors). c Enrichment (with peptide stimulation vs. without) of DQ6-HCRT56–69 tetramer^+/CD4^+ T cells in HCRT87–100 peptide stimulated culture. d Frequencies or e tetramer-binding ranks (mean index fluorescence intensity) of tetramer^+ T cells from patients and controls (sample information summarized in Table 1) stained with the indicated tetramers. Statistical analysis compares control and patient samples within each tetramer specificity. Significance (P < 0.05, bolded) is determined using the unequal variance t-test. The error bar represents mean ± SEM
To test for the presence of DQ6-HCRTpeptide tetramer^+/CD4^+ T cells, a peptide-loaded antigen-presenting cell (APC) line T2DQ6 (fixed to limit APC proliferation) was co-cultured with T cells for DQ6-restricted antigen stimulation. T2DQ6 was constructed by stable transfection of DQ6 (DQA1*01:02/DQB1*06:02) into T2, a class II-deficient TxB hybrid cell[31]. T2DQ6 cells were maintained in IMDM, GlutaMAX supplemented media (Thermo Fisher Scientific) with 10% HI FBS, 1% penicillin/streptomycin (P/S) and 1 mg/ml G418 (to maintain selective pressure on DQ6 transfectants). To load antigen, T2DQ6 cells were pulsed with peptides (i.e., EBV486–500, HCRT56–69, HCRT87–100, synthesized by Genscript) at 1 μM final concentration and incubated for 6 h at 37 °C. After peptide loading, 10 million T2DQ6 cells were washed with phosphate buffered saline (PBS) and then fixed by incubating with 0.025% glutaraldehyde in 2 ml PBS at RT for 30 s. After the addition of another 2 ml PBS, the cells were incubated for another 10 min at RT. Fixed T2DQ6 was washed twice with PBS and once with complete RPMI (RPMI 1640 medium supplemented with 10% HI human AB serum, 2 mM glutamine and 1% PS, Thermo Fisher Scientific) before mixing with CD4^+ T cells. Human PBMCs frozen in NUNC tubes were thawed quickly at 37 °C and added slowly to 10 ml warm complete RPMI. PBMCs were pelleted and resuspended in cold buffer for CD4^+ T cell isolation. Cells were isolated from the PBMCs by negative selection, using the CD4^+ cell isolation kit, according to the manufacturer’s instructions (Miltenyi Biotec). […]

Assay [2] concerns TCR27 (TRAJ24+ TCR) in J76-NFATRE-luc Jurkat cells. Description: T cell activation assay using NFAT-RE luciferase reporter, TCR27 Jurkat transfectants with K562-DQ6 APCs. The conditions noted are these: HCRT peptide, 1 × 10^5 K562-DQ6 APCs + 1 × 10^5 TCR27 J76-NFATRE-luc cells, 37 °C, 1 day; Nano-Glo chemiluminescence. The arrangement: dose or concentration left out as unconfirmed. Type of assay: cell-based, human. From the text: Fig. 6 Validation of tetramer binding and TCR signaling. a TCRs tested by transfection into Jurkat-luciferase reporter system. b Dot-plots of Jurkat transfectants expressing TCRs as shown in a. Expression of GFP indicates a successful transfection of plasmids directing the expression of TCRs. c Tetramer staining of TCR^+ Jurkat cells with percentages of tetramer^+ cells indicated. d MFIs of the tetramer-associated signal on the surface of TCR^+ cells are compared. e Jurkat cells expressing the indicated TCR were incubated with DQ6-expressing APCs (HLA class II^- K562 cells transfected with DQ6) in the presence of HCRT peptides or control stimuli: PBS (negative) or anti-CD3/anti-CD28 Abs (positive). Luciferase activity reflecting TCR-mediated signaling was measured and analyzed as previously described. […] Significance (P < 0.05, bolded) is determined using t-test comparing the indicated TCR and the TCR control
To encode the entire α/β chains of a candidate TCR, the nucleotide sequences for CDR3α and CDR3β (Supplementary Data 3) were incorporated in frame with the corresponding V(D)J genes (IMGT/V-QUEST[43]). TCRα/β genes were then synthesized and cloned into a plasmid pEF1a-TCRA_2A_TCRB_IRES-AcGFP1 (by GenScript). Each reconstructed plasmid uses a mammalian promoter, EF1a to direct co-expression of α and β chains of one candidate TCR. TCRA and TCRB are separated by the 2A self-cleaving peptide sequence. For selection purposes, the plasmid also encodes the green fluorescence protein (GFP) and neomycin resistance gene, with expression driven by separate promoters. […]
The TCR transfectants of J76-NFATRE-luc cells expresses the NFAT-RE (response element)-luciferase reporter gene allowing the conversion of T cell activation signaling to luciferase activity. […] The co-culture was incubated with various stimuli at 37 °C for 1 day before quantification of the luciferase activity. […] The mixture was then transferred to a flat-bottom white 96-well plate (Costar) for a measurement of chemiluminescence using a plate reader.
In general terms: In a reporter assay the amount or activity of a reporter protein is the signal.

Assay [3] has as its target soluble DQ6 (HLA-DQA1*01:02/DQB1*06:02) (Homo sapiens, UniProt P01909+P01920, A157G/A45G/C70R/E118A/E183D/E77G/F83G/G63E/H151Q/H199R/H252R/H253Q/I129T/I235V/I88M/INS77G/K197Q/L117V/L119F/L178F/L71W/L74F/L85Q/L91A/L98M/N214S/P87R/Q116E/Q76K/R102G/R240Q/R75S/R78G/S102Y/S185I/S41F/S97I/T121G/T122I/T172A/T86R/V229M/V68A/V73E/Y34C/Y41F/Y58L). Description: Peptide competition assay: inhibition of DQ6 binding of biotinylated EBV486–500. The conditions noted are these: test peptide 40 μM, 20 h. As to the method: To identify DQ6-restricted T epitopes in prepro-HCRT (the HCRT precursor), we used a modified version of the peptide-loading assay[31] in which HCRT peptides were tested for the ability to inhibit DQ6-binding of EBV486–500, a known DQ6-binding epitope derived from Epstein-Bar virus. We evaluated overlapping 15-mer peptides, offset by four amino acids (aa), covering the entire prepro-HCRT sequence (Supplementary Data 1). […] These were consistent with in silico peptide-binding predictions using the NetMHCIIpan3.2 software[33] (Supplementary Fig. 1a–c). The nine peptides span five regions (i–v) of prepro-HCRT. A strong binder (>75% competition), HCRT1–15, was within the signal peptide region (i) and contained a 9-aa core, […], previously shown to bind DQ6 by X-ray structure. Two overlapping peptides span the C-terminus of the signal peptide and N-terminus of the secreted HCRT1 neurotransmitter. This region (ii) contained three possible registers as predicted by NetMHCIIpan3.2 using nonamers (Supplementary Fig. 1d). […]
Fig. 2 DQ6-binding cores in prepro-HCRT and their structural impacts. a Thirty overlapping peptides covering prepro-HCRT were added, individually, into a reaction containing soluble DQ6, bio-EBV486–500 peptide, and HLA-DM (a peptide loading catalyst). DQ6-associated bio-EBV486–500 was measured at steady state by ELISA[31]. %Competition = 1−%DQ6/EBV binding. […]

With “EBV486-500: known DQ6-binding epitope derived from Epstein-Barr virus nuclear antigen; positive control peptide [reference compound]”, the “Frequency of corresponding DQ6-peptide tetramer+/CD4+ T cells after in vitro stimulation with the peptide” value (“Frequency” for short) in assay [1] was “enrichment”.

Regarding SGNHAAGILTMGRR [HCRT87–100], in assay [2], the “TCR-mediated signaling (luciferase activity) of TCR27 transfectants” value (from here on “TCR-mediated signaling”) is reported as “moderate TCR-mediated signaling”. The “Frequency” value in assay [1] is reported as “significantly increased”. The “DQ6-HCRT56–69 tetramer+/CD4+ T cells in HCRT87–100 peptide stimulated culture” value in assay [1] (with peptide stimulation vs without, some T1N donors) is “in vitro enrichment”.

Take SGNHAAGILTM-NH2 [HCRT87–97-NH2]: in assay [2], the “TCR-mediated signaling” value was “stronger signaling”.

As for “ALLSSGAAAQPLPDC [Hcrt25-39, 15-mer overlapping peptide of prepro-HCRT]”, the “DQ6 binder class by %Competition” value in assay [3] (same assay as E1, pH 4.6, 37 °C) is given as “strong”.

As for AGNHAAGILTLGKR [HCRT56–69], the “Frequency” value in assay [1] is reported as “significantly increased”.

On to “MNLPSTKVSWAAVTL [Hcrt1-15, 15-mer overlapping peptide of prepro-HCRT]”, for which the “%Competition (inhibition of the indicator EBV peptide binding to DQ6)” value in assay [3] (1 μM biotinylated EBV486–500, 25 nM thrombin-cleaved DQ6-CLIP87–101, 100 nM DM, acetate pH 4.6, 37 °C, DELFIA Eu-streptavidin time-resolved fluorescence, %Competition = 1−%DQ6/EBV binding, mean, n = 4) was above 75%.

Regarding MNLPSTKVSWAAV [HCRT1–13], the “TCR-mediated signaling” value in assay [2] is recorded as “null function”.

(Values after PMC6868281, “In vivo clonal expansion and phenotypes of hypocretin-specific CD4^+ T cells in narcolepsy patients and controls” (Nature Communications, 2019).)
